Drawing on patent publication US8748624B2, “Picolinamido-propanoic acid derivatives useful as glucagon receptor antagonists” (Janssen Pharmaceutica NV, priority 2011, dated 2014), this text covers Ki for 19 compounds.

Assay [1] concerns the target human glucagon receptor (GCGR) (Homo sapiens (Human), UniProt P47871). The assay can be described thus: Inhibition of 125I-glucagon binding to membranes from HEK293 cells expressing the human glucagon receptor. As to conditions: membranes of hGluc-1 HEK cells, 125I-glucagon 0.3 nM. The method, then:
Inhibition ^125I-Glucagon Binding to Membranes from HEK293 Cells Expressing the Human Glucagon Receptor (GCGR)
Full-length human GCGR (Accession Number: NM000160) subcloned into pcDNA3.1 was stably transfected into HEK293 cells (hGluc-1 HEK) and maintained under G418 selection (500 μg/mL). Cell cultures were maintained in DMEM/F12 media supplemented with 10% FBS and 1% GlutaMax. Membranes were prepared from these cells as follows: cells were harvested from T225 flasks and re-suspended in hypotonic lysis buffer, 50 mM HEPES pH 7.4 supplemented with Complete Protease inhibitors (Boehringer Mannheim, Indianapolis, Ind.). Cells were dounced 20 times on ice and spun at 700×g to remove nuclei and unlysed cells. The resulting pellet was re-suspended in hypotonic lysis buffer and the above step was repeated. Supernatants from the low speed centrifugation were combined and subsequently spun at 100K×g for 1 hr at 4° C. and the resulting pellet was re-suspended in buffer containing 50 mM HEPES pH 7.4 and 10% sucrose and the protein concentration was adjusted at 1 mg/mL as determined in the BCA assay. Membranes were aliquoted and stored at −80° C. The binding assay was performed by a filtration method in a 384 well format. Membranes at a final protein concentration of 6 μg/well were incubated with ^125I-glucagon at 0.3 nM and in the presence of compound for 2 hours at room temperature in a total reaction volume of 40 μL per well. Assay buffer consisted of 50 mM HEPES, pH 7.4, 5 mM MgCl2, 1 mM CaCl2 and 0.2% BSA. 30 μL of the reaction was then transferred to PEI treated filter plates and followed by filter aspiration. Plates were then washed 5× and allowed to dry at room temperature overnight. The next day the bottom of the plate was covered with seal tape and scintillant was added. Total counts retained by the filters were quantified with a Top Count instrument. IC50's were generated by using a non-linear regression macro driven in Excel and converted to K's.

For a further assay, the target named is human GCGR (Homo sapiens (Human), UniProt P47871). As to the kind of experiment: Cellular functional assay, cAMP readout (glucagon-stimulated cAMP in HEK293 cells expressing human GCGR). Format: cell-based. As to conditions: hGluc-1 HEK cells. The method, boiled down:
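HEK293 cells stably transfected with full-length human GCGR were exposed to compound for 30 min before a 5-min challenge with […] (final) glucagon. Readout was TR-FRET (LANCE) cAMP versus standard curve; IC50s fitted by non-linear regression and converted to Ki values.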

Where [2] appears, read: 2 hours room temperature, IC50 converted to Ki, average if tested more than once.
Where [3] appears, read: LANCE TR-FRET, IC50 converted to Ki, average if tested more than once.
Where [4] appears, read: meta-substituted comparative compounds (Table 3).

Each structure is given as a SMILES string.

Chain of human GCGR (P47871 26-477): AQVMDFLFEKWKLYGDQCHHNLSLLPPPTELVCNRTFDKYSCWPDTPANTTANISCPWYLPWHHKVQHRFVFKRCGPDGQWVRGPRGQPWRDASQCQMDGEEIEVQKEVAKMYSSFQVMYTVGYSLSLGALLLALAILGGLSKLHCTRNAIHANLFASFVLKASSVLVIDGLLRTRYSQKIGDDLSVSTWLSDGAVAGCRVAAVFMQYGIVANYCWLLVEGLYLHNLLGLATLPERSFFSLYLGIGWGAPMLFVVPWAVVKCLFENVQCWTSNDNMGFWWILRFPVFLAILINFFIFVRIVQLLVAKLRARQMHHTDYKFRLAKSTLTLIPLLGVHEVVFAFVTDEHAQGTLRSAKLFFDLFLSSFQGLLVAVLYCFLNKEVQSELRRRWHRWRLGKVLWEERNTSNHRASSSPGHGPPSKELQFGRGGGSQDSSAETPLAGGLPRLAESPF
Chain of human glucagon receptor (GCGR) (P47871 26-477): as above

The Ki is the dissociation constant of the complex between target and ligand, obtained from inhibition or displacement. As to `O=C(O)CCNC(=O)c1ccc(-c2cc(F)ccc2CNc2ccc(-c3ccc(C(F)(F)F)cc3)c(F)c2)cn1` [Compound 56, 3-(5-(5-fluoro-2-(((2-fluoro-4′-(trifluoromethyl)-[1,1′-biphenyl]-4-yl)amino)methyl)phenyl)picolinamido)propanoic acid], the Ki was 98.8 nM in assay [1] (setting [2]) and 309 nM on human GCGR (setting [3]).

As for `O=C(O)CCNC(=O)c1ccc(-c2cc(F)c(F)cc2C(=O)Nc2ccc(-c3ccc(Cl)cc3Cl)cc2)cn1` [Compound 94, 3-(5-(2-((2′,4′-dichloro-[1,1′-biphenyl]-4-yl)carbamoyl)-4,5-difluorophenyl)picolinamido)propanoic acid], the Ki amounted to 33.5 nM in assay [1] (setting [2]) and 78.5 nM on human GCGR (setting [3]).

For `O=C(O)CCNC(=O)c1ccc(-c2cc(C(F)(F)F)c(Cl)cc2CNc2ccc(-c3ccc(Cl)cc3)cc2)cn1` [Compound 80, 3-(5-(4-chloro-2-(((4′-chloro-[1,1′-biphenyl]-4-yl)amino)methyl)-5-(trifluoromethyl)phenyl)picolinamido)propanoic acid], the inhibitory constant (Ki) in assay [1] (setting [2]) was found to be 28.6 nM; on human GCGR (setting [3]), 47.4 nM.

Consider `O=C(O)CCNC(=O)c1ccc(-c2cc(C(F)(F)F)ccc2CNc2ccc(-c3ccc(F)cc3Cl)cc2)cn1` [Compound 23, 3-(5-(2-(((2′-chloro-4′-fluoro-[1,1′-biphenyl]-4-yl)amino)methyl)-5-(trifluoromethyl)phenyl)picolinamido)propanoic acid], for which the Ki in assay [1] (setting [2]) was 26.1 nM; at human GCGR (setting [3]), 130 nM.

Turning to `Cc1ccc(-c2ccc(NCc3cc(F)c(F)cc3-c3ccc(C(=O)NCCC(=O)O)nc3)cc2Cl)c(F)c1` [Compound 105, 3-(5-(2-(((2-chloro-2′-fluoro-4′-methyl-[1,1′-biphenyl]-4-yl)amino)methyl)-4,5-difluorophenyl)picolinamido)propanoic acid], the Ki in assay [1] (setting [2]) amounted to 33 nM; on human GCGR (setting [3]), 255 nM.

On to `Cc1ccc(C(=O)Nc2ccc(-c3ccc(Cl)cc3)cc2)c(-c2ccc(C(=O)NCCC(=O)O)nc2)c1` [Compound 145, 3-(5-(2-((4′-chloro-[1,1′-biphenyl]-4-yl)carbamoyl)-5-methylphenyl)picolinamido)propanoic acid], for which the Ki in assay [1] (setting [2]) was 36.3 nM; on human GCGR (setting [3]) it was 68.1 nM.

As to `O=C(O)CCNC(=O)c1ccc(-c2cc(C(F)(F)F)ccc2CNc2ccc(-c3ccc(Cl)cc3F)cc2)cn1` [Compound 40, 3-(5-(2-(((4′-chloro-2′-fluoro-[1,1′-biphenyl]-4-yl)amino)methyl)-5-(trifluoromethyl)phenyl)picolinamido)propanoic acid], the Ki was found to be 26.3 nM in assay [1] (setting [2]) and 64.2 nM on human GCGR (setting [3]).

Regarding `CN(Cc1ccc(Cl)cc1-c1ccc(C(=O)NCCC(=O)O)nc1)c1ccc(-c2ccc(Cl)cc2)cc1` [Compound 17, 3-(5-(5-chloro-2-(((4′-chloro-[1,1′-biphenyl]-4-yl)(methyl)amino)methyl)phenyl)picolinamido)propanoic acid], the Ki in assay [1] (setting [2]) is 1480 nM; at human GCGR (setting [3]), over 10400 nM.

For the compound `O=C(O)CCNC(=O)c1ccc(-c2cc(Cl)cc(CNc3ccc(-c4ccc(Cl)cc4)cc3)c2)cn1` [Compound M3, 3-(5-(3-chloro-5-(((4′-chloro-[1,1′-biphenyl]-4-yl)amino)methyl)phenyl)picolinamido)propanoic acid, reference compound], the Ki is over 1350 nM in assay [1] (setting [4]) and over 10400 nM at human GCGR (setting [4]).

For the compound `O=C(O)CCNC(=O)c1ccc(-c2cc(C(F)(F)F)ccc2CNc2ccc(-c3cccc(C(F)(F)F)c3Cl)cc2)cn1` [Compound 41, 3-(5-(2-(((2′-chloro-3′-(trifluoromethyl)-[1,1′-biphenyl]-4-yl)amino)methyl)-5-(trifluoromethyl)phenyl)picolinamido)propanoic acid], the Ki worked out at 20.4 nM in assay [1] (setting [2]) and 28.3 nM on human GCGR (setting [3]).

`Cc1cc(Cl)ccc1-c1ccc(NCc2c(Cl)cc(C(F)(F)F)cc2-c2ccc(C(=O)NCCC(=O)O)nc2)cc1` [Compound 73, 3-(5-(3-chloro-2-(((4′-chloro-2′-methyl-[1,1′-biphenyl]-4-yl)amino)methyl)-5-(trifluoromethyl)phenyl)picolinamido)propanoic acid]: the Ki turned out to be 19.5 nM in assay [1] (setting [2]) and 3.7 nM on human GCGR (setting [3]).

Take `COc1cc(NCc2ccc(Cl)cc2-c2ccc(C(=O)NCCC(=O)O)nc2)ccc1-c1ccc(C(F)(F)F)cc1` [Compound 54, 3-(5-(5-chloro-2-(((2-methoxy-4′-(trifluoromethyl)-[1,1′-biphenyl]-4-yl)amino)methyl)phenyl)picolinamido)propanoic acid]: the Ki in assay [1] (setting [2]) was found to be 48.5 nM; on human GCGR (setting [3]), 220 nM.

Take `O=C(O)CCNC(=O)c1ccc(-c2cc(Cl)cc(CNc3ccc(-c4ccc(Cl)cc4Cl)cc3)c2)cn1` [Compound M4, 3-(5-(3-chloro-5-(((2′,4′-dichloro-[1,1′-biphenyl]-4-yl)amino)methyl)phenyl)picolinamido)propanoic acid, reference compound]: the Ki in assay [1] (setting [4]) is over 1350 nM; at human GCGR (setting [4]), over 10400 nM.

Take `O=C(O)CCNC(=O)c1ccc(-c2cc(C3=CCCCC3)ccc2CNc2ccc(-c3ccc(F)cc3)cc2)cn1` [Compound 174, 3-(5-(4-(((4′-fluoro-[1,1′-biphenyl]-4-yl)amino)methyl)-2′,3′,4′,5′-tetrahydro-[1,1′-biphenyl]-3-yl)picolinamido)propanoic acid]: the Ki in assay [1] (setting [2]) was 18.3 nM; on human GCGR (setting [3]) it was 110 nM.

On to `CC(C)c1ccc(CNc2ccc(-c3ccc(F)cc3)cc2)c(-c2ccc(C(=O)NCCC(=O)O)nc2)c1` [Compound 158, 3-(5-(2-(((4′-fluoro-[1,1′-biphenyl]-4-yl)amino)methyl)-5-isopropylphenyl)picolinamido)propanoic acid], for which the Ki in assay [1] (setting [2]) was 20 nM; at human GCGR (setting [3]), 125 nM.

With `O=C(O)CCNC(=O)c1ccc(-c2cc(Cl)ccc2CNc2ccc(-c3ccc(Cl)c(F)c3)c(F)c2)cn1` [Compound 93, 3-(5-(5-chloro-2-(((4′-chloro-2,3′-difluoro-[1,1′-biphenyl]-4-yl)amino)methyl)phenyl)picolinamido)propanoic acid], the Ki in assay [1] (setting [2]) was determined as 53.4 nM; at human GCGR (setting [3]), 295 nM.

For the compound `O=C(O)CCNC(=O)c1ccc(-c2cc(Cl)ccc2CNc2ccc(-c3ccc(Cl)cc3)c(Cl)c2)cn1` [Compound 10, 3-(5-(5-chloro-2-(((2,4′-dichloro-[1,1′-biphenyl]-4-yl)amino)methyl)phenyl)picolinamido)propanoic acid], the values for the inhibition constant (Ki) (in assay [1] (setting [2]); at human GCGR (setting [3])) were 31.2 nM and 110 nM, respectively.

Take `Cc1cc(C(F)(F)F)ccc1-c1ccc(NCc2ccc(C(F)(F)F)cc2-c2ccc(C(=O)NCCC(=O)O)nc2)cc1` [Compound 30, 3-(5-(2-(((2′-methyl-4′-(trifluoromethyl)-[1,1′-biphenyl]-4-yl)amino)methyl)-5-(trifluoromethyl)phenyl)picolinamido)propanoic acid]: the Ki in assay [1] (setting [2]) worked out at 19.3 nM; on human GCGR (setting [3]), 19.4 nM.

Regarding `O=C(O)CCNC(=O)c1ccc(-c2cc(Cl)ccc2CNc2ccc(-c3cccc(F)c3)cc2)cn1` [Compound 134, 3-(5-(5-chloro-2-(((3′-fluoro-[1,1′-biphenyl]-4-yl)amino)methyl)phenyl)picolinamido)propanoic acid], the inhibition constant (Ki) turned out to be 38.3 nM in assay [1] (setting [2]) and 600 nM at human GCGR (setting [3]).
